Results published in patent US9611221B2, “Histone demethylase inhibitors” (CELGENE QUANTICEL RESEARCH, INC., priority 2012, dated 2017).

Assays:
Format in all cases: biochemical
[1] = target: Jarid1A (Homo sapiens (Human), UniProt P29375); assay: Jarid1A in vitro enzyme inhibition assay (TR-FRET); settings: 1 nM Jarid1A, 300 nM H3K4me3-biotin peptide, 2 μM alpha-ketoglutaric acid
Excerpt: (§1) This assay determines the ability of a test compound to inhibit Jarid1A, Jarid1B, and JMJD2C demethylase activity. Baculovirus expressed Jarid1A (GenBank Accession #NM_001042603, AA1-1090) was purchased from BPS Bioscience (Cat#50110). Baculovirus expressed Jarid1B (GenBank Accession #NM_006618, AA 2-751) was purchased from BPS Bioscience (Cat #50121) or custom made by MolecularThroughput. Baculovirus expressed JMJD2C (GenBank Accession #BC143571, AA 2-372) was purchased from BPS Bioscience (Cat#50105).
(§2) The enzymatic assay of Jarid1A activity is based upon Time Resolved-Fluorescence Resonance Energy Transfer (TR-FRET) detection. The ability of test compounds to inhibit the activity of Jarid1A was determined in 384-well plate format under the following reaction conditions: 1 nM Jarid1A, 300 nM H3K4me3-biotin labeled peptide (Anaspec cat #64357), 2 μM alpha-ketoglutaric acid in assay buffer of 50 mM HEPES, pH7.3, 0.005% Brij35, 0.5 mM TCEP, 0.2 mg/ml BSA, 50 μM sodium L-ascorbate, and 2 μM ammonium iron(II) sulfate. Reaction product was determined quantitatively by TR-FRET after the addition of detection reagent Phycolink Streptavidin-allophycocyanin (Prozyme) and Europium-anti-mono- or di-methylated histone H3 lysine 4 (H3K4me1-2) antibody (PerkinElmer) in the presence of 5 mM EDTA in LANCE detection buffer (PerkinElmer) at a final concentration of 25 nM and 1 nM, respectively.
(§3) The reaction mixture was incubated at room temperature for 30 minutes, and terminated by the addition of 6 μl of 5 mM EDTA in LANCE detection buffer containing 50 nM Phycolink Streptavidin-allophycocyanin and 2 nM Europium-anti-H3K4me1-2 antibody. Plates were read by EnVisionMultilabel Reader in TR-FRET mode (excitation at 320 nm, emission at 615 nm and 665 nm) after 1 hour incubation at room temperature. A ratio was calculated (665/615) for each well and fitted to determine inhibition constant (IC50).

[2] = target: Jarid1B (Homo sapiens (Human), UniProt Q9UGL1); assay: Jarid1B in vitro enzyme inhibition assay (TR-FRET); settings: 0.8 nM Jarid1B, 300 nM H3K4me3-biotin peptide, 2 μM alpha-ketoglutaric acid
Excerpt: as §1
as §2, with “The” for “The enzymatic assay of Jarid1A activity is based upon Time Resolved-Fluorescence Resonance Energy Transfer (TR-FRET) detection. The”, “of Jarid1B” for “of Jarid1A”, “conditions: 0.8” for “conditions: 1”, “nM Jarid1B,” for “nM Jarid1A,”
as §3

[3] = target: JMJD2C (Homo sapiens (Human), UniProt Q9H3R0); assay: JMJD2C in vitro enzyme inhibition assay (TR-FRET); settings: 0.3 nM JMJD2C, 300 nM H3K9me3-biotin peptide, 2 μM alpha-ketoglutaric acid
Excerpt: as §1
The ability of test compounds to inhibit the activity of JMJD2C was determined in 384-well plate format under the following reaction conditions: 0.3 nM JMJD2C, 300 nM H3K9me3-biotin labeled peptide (Anaspec cat #64360), 2 μM alpha-ketoglutaric acid in assay buffer of 50 mM HEPES, pH7.3, 0.005% Brij35, 0.5 mM TCEP, 0.2 mg/ml BSA, 50 μM sodium L-ascorbate, and 2 μM ammonium iron(II) sulfate. Reaction product was determined quantitatively by TR-FRET after the addition of detection reagent Phycolink Streptavidin-allophycocyanin (Prozyme) and Europium-anti-di-methylated histone H3 lysine 9 (H3K9me2) antibody (PerkinElmer) in the presence of 5 mM EDTA in LANCE detection buffer (PerkinElmer) at a final concentration of 50 nM and 1 nM, respectively.
as §3, with “containing 100” for “containing 50”, “nM Europium-anti-H3K9me2” for “nM Europium-anti-H3K4me1-2”

Chain of Jarid1A (P29375 1-1090): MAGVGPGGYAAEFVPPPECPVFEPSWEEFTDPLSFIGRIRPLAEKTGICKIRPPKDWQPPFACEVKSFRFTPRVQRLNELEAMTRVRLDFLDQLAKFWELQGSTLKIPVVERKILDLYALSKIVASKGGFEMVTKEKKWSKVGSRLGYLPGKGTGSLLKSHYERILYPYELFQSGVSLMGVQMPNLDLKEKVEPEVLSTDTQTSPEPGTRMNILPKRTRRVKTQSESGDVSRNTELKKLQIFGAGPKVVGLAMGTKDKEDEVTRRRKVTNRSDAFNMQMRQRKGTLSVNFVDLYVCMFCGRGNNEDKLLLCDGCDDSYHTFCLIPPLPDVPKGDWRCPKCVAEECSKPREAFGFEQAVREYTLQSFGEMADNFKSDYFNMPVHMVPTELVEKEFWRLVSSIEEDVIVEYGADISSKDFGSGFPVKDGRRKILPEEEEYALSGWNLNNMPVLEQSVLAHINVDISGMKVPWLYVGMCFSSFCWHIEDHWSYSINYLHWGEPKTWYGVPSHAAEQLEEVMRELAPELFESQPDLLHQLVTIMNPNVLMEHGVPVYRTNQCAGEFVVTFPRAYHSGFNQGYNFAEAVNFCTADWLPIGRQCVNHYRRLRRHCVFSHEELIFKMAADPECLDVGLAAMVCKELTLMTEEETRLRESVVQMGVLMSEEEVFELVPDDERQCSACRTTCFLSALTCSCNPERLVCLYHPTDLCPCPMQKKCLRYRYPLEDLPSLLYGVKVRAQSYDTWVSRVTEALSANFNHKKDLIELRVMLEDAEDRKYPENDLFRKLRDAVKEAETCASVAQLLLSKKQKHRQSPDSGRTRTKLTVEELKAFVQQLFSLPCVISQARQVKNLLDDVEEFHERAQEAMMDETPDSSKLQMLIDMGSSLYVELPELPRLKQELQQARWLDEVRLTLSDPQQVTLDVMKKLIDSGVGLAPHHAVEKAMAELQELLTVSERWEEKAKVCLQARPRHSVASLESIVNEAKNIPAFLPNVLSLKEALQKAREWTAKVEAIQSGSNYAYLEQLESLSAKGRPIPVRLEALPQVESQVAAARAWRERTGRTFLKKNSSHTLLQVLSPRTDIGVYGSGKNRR
Chain of JMJD2C (Q9H3R0 2-372): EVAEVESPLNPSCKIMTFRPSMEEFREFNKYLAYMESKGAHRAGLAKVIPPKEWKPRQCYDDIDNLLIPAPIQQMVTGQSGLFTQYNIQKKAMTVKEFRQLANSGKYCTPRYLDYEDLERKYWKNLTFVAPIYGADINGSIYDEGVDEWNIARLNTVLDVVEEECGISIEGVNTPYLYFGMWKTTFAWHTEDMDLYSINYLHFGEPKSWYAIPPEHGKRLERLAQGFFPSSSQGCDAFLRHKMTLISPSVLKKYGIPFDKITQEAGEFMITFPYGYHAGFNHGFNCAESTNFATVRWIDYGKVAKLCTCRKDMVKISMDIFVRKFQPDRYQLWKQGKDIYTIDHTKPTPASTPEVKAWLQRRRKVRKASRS
Chain of Jarid1B (Q9UGL1 2-751): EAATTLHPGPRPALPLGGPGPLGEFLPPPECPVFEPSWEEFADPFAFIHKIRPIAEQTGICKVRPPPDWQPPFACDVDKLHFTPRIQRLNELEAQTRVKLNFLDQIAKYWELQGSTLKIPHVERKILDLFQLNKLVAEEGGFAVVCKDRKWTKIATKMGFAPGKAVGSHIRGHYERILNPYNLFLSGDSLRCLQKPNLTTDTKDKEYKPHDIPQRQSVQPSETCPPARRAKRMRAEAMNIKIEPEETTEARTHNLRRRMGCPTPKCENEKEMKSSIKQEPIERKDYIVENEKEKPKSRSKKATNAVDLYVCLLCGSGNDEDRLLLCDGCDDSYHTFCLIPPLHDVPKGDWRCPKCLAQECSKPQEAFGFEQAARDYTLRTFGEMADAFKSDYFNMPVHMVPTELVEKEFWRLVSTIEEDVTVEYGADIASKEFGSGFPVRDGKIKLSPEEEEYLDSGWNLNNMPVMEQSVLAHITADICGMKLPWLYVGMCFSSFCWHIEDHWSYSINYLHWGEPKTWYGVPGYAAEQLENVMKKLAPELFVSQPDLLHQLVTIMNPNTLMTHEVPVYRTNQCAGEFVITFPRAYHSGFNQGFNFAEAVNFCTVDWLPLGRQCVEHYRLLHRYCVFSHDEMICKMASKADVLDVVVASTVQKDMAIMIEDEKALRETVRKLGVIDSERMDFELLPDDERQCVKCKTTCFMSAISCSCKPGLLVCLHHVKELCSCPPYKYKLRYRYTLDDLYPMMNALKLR

O=C(O)c1ccncc1NCc1ccccc1Nc1ccccc1 [Example 36, 3-{[2-(phenylamino)benzyl]amino}pyridine-4-carboxylic acid]
IC50 [1]: ≤ 100 nM | IC50 [2]: ≤ 100 nM | IC50 [3]: 100 to 1000 nM

O=C(O)c1ccncc1NCc1cccc(OCC2CC2)c1 [Example 37, 3-{[3-(cyclopropylmethoxy)benzyl]amino}pyridine-4-carboxylic acid]
IC50 [1]: 100 to 1000 nM | IC50 [2]: ≤ 100 nM | IC50 [3]: 100 to 1000 nM

O=C(O)c1ccncc1NCc1coc2ccccc12 [Example 38, 3-[(1-benzofuran-3-ylmethyl)amino]pyridine-4-carboxylic acid]
IC50 [1]: ≤ 100 nM | IC50 [2]: ≤ 100 nM | IC50 [3]: 100 to 1000 nM

O=C(O)c1ccncc1NCc1ccccc1Oc1ccccc1 [Example 33, 3-[(2-phenoxybenzyl)amino]pyridine-4-carboxylic acid]
IC50 [1]: ≤ 100 nM | IC50 [2]: ≤ 100 nM | IC50 [3]: 100 to 1000 nM

O=C(O)c1ccncc1NCC1CCOc2ccccc21 (stereo not drawn) [Example 58, 3-[(3,4-dihydro-2H-chromen-4-ylmethyl)amino]pyridine-4-carboxylic acid]
IC50 [1]: ≤ 100 nM | IC50 [2]: ≤ 100 nM | IC50 [3]: ≤ 100 nM

Cc1cccc(CNc2cnccc2C(=O)O)c1C1CC1 [Example 30, 3-[(2-cyclopropyl-3-methylbenzyl)amino]pyridine-4-carboxylic acid]
IC50 [1]: ≤ 100 nM | IC50 [2]: ≤ 100 nM | IC50 [3]: ≤ 100 nM

O=C(O)c1ccncc1NCc1cnccc1C1CC1 [Example 31, 3-{[(4-cyclopropylpyridin-3-yl)-methyl]amino}pyridine-4-carboxylic acid]
IC50 [1]: ≤ 100 nM | IC50 [2]: ≤ 100 nM | IC50 [3]: ≤ 100 nM

COc1cc(Cl)ccc1CNc1cnccc1C(=O)O [Example 20, 3-[(4-chloro-2-methoxybenzyl)amino]pyridine-4-carboxylic acid]
IC50 [1]: ≤ 100 nM | IC50 [2]: ≤ 100 nM | IC50 [3]: 100 to 1000 nM

O=C(O)c1ccncc1NCC1COc2ccccc2O1 (stereo not drawn) [Example 44, 3-[(2,3-dihydro-1,4-benzodioxin-2-ylmethyl)amino]pyridine-4-carboxylic acid]
IC50 [1]: ≤ 100 nM | IC50 [2]: ≤ 100 nM | IC50 [3]: ≤ 100 nM

O=C(O)c1ccncc1NCc1ccc(Cl)cc1Cl [Example 18, 3-[(2,4-dichlorobenzyl)amino]pyridine-4-carboxylic acid]
IC50 [1]: ≤ 100 nM | IC50 [2]: ≤ 100 nM | IC50 [3]: ≤ 100 nM

O=C(O)c1ccncc1NCc1cccc2cc[nH]c12 [Example 29, 3-[(1H-indol-7-ylmethyl)amino]pyridine-4-carboxylic acid]
IC50 [1]: ≤ 100 nM | IC50 [2]: ≤ 100 nM | IC50 [3]: ≤ 100 nM

O=C(O)c1ccncc1NCC1CCCc2ccc(C3CC3)cc21 (stereo not drawn) [Example 53, 3-{[(7-cyclopropyl-1,2,3,4-tetrahydronaphthalen-1-yl)methyl]amino}pyridine-4-carboxylic acid]
IC50 [1]: ≤ 100 nM | IC50 [2]: ≤ 100 nM | IC50 [3]: 100 to 1000 nM

O=C(O)c1ccncc1NCc1ccc(Cl)cc1C1CC1 [Example 26, 3-[(4-chloro-2-cyclopropylbenzyl)amino]pyridine-4-carboxylic acid]
IC50 [1]: ≤ 100 nM | IC50 [2]: ≤ 100 nM | IC50 [3]: 100 to 1000 nM

Cc1ccc(C2CC2)c(CNc2cnccc2C(=O)O)c1 [Example 34, 3-[(2-cyclopropyl-5-methylbenzyl)amino]pyridine-4-carboxylic acid]
IC50 [1]: ≤ 100 nM | IC50 [2]: ≤ 100 nM | IC50 [3]: 100 to 1000 nM

O=C(O)c1ccncc1NCc1ccc(C(F)(F)F)cc1 [Example 8, 3-{[4-(trifluoromethyl)benzyl]amino}pyridine-4-carboxylic acid]
IC50 [1]: ≤ 100 nM | IC50 [2]: ≤ 100 nM | IC50 [3]: ≤ 100 nM

Cc1ccc2c(c1)C(CNc1cnccc1C(=O)O)CCO2 (stereo not drawn) [Example 63, 3-{[(6-methyl-3,4-dihydro-2H-chromen-4-yl)methyl]amino}pyridine-4-carboxylic acid]
IC50 [1]: ≤ 100 nM | IC50 [2]: ≤ 100 nM | IC50 [3]: 100 to 1000 nM

O=C(O)c1ccncc1NCc1cccc(OC(F)(F)F)c1 [Example 35, 3-{[3-(trifluoromethoxy)benzyl]amino}pyridine-4-carboxylic acid]
IC50 [1]: 100 to 1000 nM | IC50 [2]: 100 to 1000 nM | IC50 [3]: 100 to 1000 nM

O=C(O)c1ccncc1NCc1ccc(F)cc1 [Example 4, 3-[(4-fluorobenzyl)amino]pyridine-4-carboxylic acid]
IC50 [1]: ≤ 100 nM | IC50 [2]: ≤ 100 nM | IC50 [3]: ≤ 100 nM

Cc1ccc(CNc2cnccc2C(=O)O)o1 [Example 40, 3-{[(5-methylfuran-2-yl)methyl]amino}pyridine-4-carboxylic acid]
IC50 [1]: ≤ 100 nM | IC50 [2]: ≤ 100 nM | IC50 [3]: ≤ 100 nM

O=C(O)c1ccncc1NCc1ccc(C2CC2)cc1 [Example 25, 3-[(4-cyclopropylbenzyl)amino]pyridine-4-carboxylic acid]
IC50 [1]: ≤ 100 nM | IC50 [2]: ≤ 100 nM | IC50 [3]: 100 to 1000 nM

O=C(O)c1ccncc1NCc1ccc(Cl)cc1O [Example 21, 3-[(4-chloro-2-hydroxybenzyl)amino]pyridine-4-carboxylic acid]
IC50 [1]: ≤ 100 nM | IC50 [2]: ≤ 100 nM | IC50 [3]: ≤ 100 nM

O=C(O)c1ccncc1NCc1cccc2ccccc12 [Example 28, 3-[(naphthalene-1-ylmethyl)amino]pyridine-4-carboxylic acid]
IC50 [1]: ≤ 100 nM | IC50 [2]: ≤ 100 nM | IC50 [3]: ≤ 100 nM

O=C(O)c1ccncc1NCC1CCCc2ccccc21 (stereo not drawn) [Example 46, 3-[(1,2,3,4-tetrahydronaphthalen-1-ylmethyl)amino]pyridine-4-carboxylic acid]
IC50 [1]: ≤ 100 nM | IC50 [2]: ≤ 100 nM | IC50 [3]: 100 to 1000 nM

O=C(O)c1ccncc1NCC12CC3CC(CC(C3)C1)C2 [Example 42, 3-[(adamantan-1-ylmethyl)amino]pyridine-4-carboxylic acid]
IC50 [1]: 100 to 1000 nM | IC50 [2]: 100 to 1000 nM | IC50 [3]: ≤ 100 nM

COc1ccc2c(c1)CCCC2CNc1cnccc1C(=O)O (stereo not drawn) [Example 60, 3-{[(6-methoxy-1,2,3,4-tetrahydronaphthalen-1-yl)methyl]amino}pyridine-4-carboxylic acid]
IC50 [1]: ≤ 100 nM | IC50 [2]: ≤ 100 nM | IC50 [3]: 100 to 1000 nM

O=C(O)c1ccncc1NCc1ccc(C(F)(F)F)cc1C1CC1 [Example 27, 3-{[2-cyclopropyl-4-(trifluoromethl)benzyl]amino}pyridine-4-carboxylic acid]
IC50 [1]: ≤ 100 nM | IC50 [2]: ≤ 100 nM | IC50 [3]: 100 to 1000 nM

O=C(O)c1ccncc1NC[C@H]1CCCc2ccccc21 [Example 47, 3-{[(1S)-1,2,3,4-tetrahydronaphthalen-1-ylmethyl]amino}pyridine-4-carboxylic acid]
IC50 [1]: ≤ 100 nM | IC50 [2]: ≤ 100 nM | IC50 [3]: 100 to 1000 nM

O=C(O)c1ccncc1NCc1cc2ccccc2o1 [Example 41, 3-[(1-benzofuran-2-ylmethyl)amino]pyridine-4-carboxylic acid]
IC50 [1]: ≤ 100 nM | IC50 [2]: ≤ 100 nM | IC50 [3]: ≤ 100 nM
